Assay results published in patent publication US12723236B2, “Method for producing cell aggregate” (TOPPAN Holdings Inc., priority 2021, dated 2026).
Entries after “also recorded” stand apart in the source; their conditions may differ.

Key:
[1] = tested on: PXB cells, SEC and LX2; assay: Aggregation behavior of cells treated with heparin/collagen (live-cell confocal observation); type: cell-based, Human; settings: 0.2 mg/mL collagen, 0.5 mg/mL heparin in 100 mM Tris-HCl; 96-well microplate; 2 hours after seeding; FIG. 2
Description: PXB cells, SEC and LX2 were used as cells.
The collected cells were mixed at the following ratios and cell amounts to obtain a cell mixture. • total amount of cells: 300,000 cells • cell proportions in tissue: • PXB cells: 65%·SEC: 25%·LX2: 10% Step 1-4
(§1) 100 μL of each of the following solutions was added to the cell mixture at room temperature, suspended until the cells were no longer visible, and then centrifuged (400 g×2 min) to obtain a viscous component. Here, regardless of the presence of heparin and collagen, it was confirmed in advance that the pH of each solution was approximately around 7.4. • (1) 100 mM Tris-HCl buffer solution • (2) collagen-containing solution (0.2 mg/mL collagen in 100 mM Tris-HCl buffer solution*) • (3) collagen and heparin-containing solution (0.2 mg/mL collagen and 0.5 mg/mL heparin in 100 mM Tris-HCl buffer solution) • *Since collagen quickly gelled in a neutral solution at room temperature, equal amounts of a 0.4 mg/mL collagen in 5 mM acetate buffer solution and a 200 mM Tris-HCl buffer solution prepared in advance were mixed in each of the above solutions and used. Step 1-5
After the supernatant was removed from the solution containing the viscous component, HCM was added so that the final volume of the solution was a solution amount of 100 μL to obtain a cell suspension. […]

[2] = tested on: MRP2; assay: MRP2 immunostaining and image analysis of hepatotoxicity model formed in fibrin gel; type: cell-based, Human; settings: 3 days of culture; for expression of MRP2 (fluorescence): 0.2 mg/mL collagen and/or 0.5 mg/mL heparin
Description: Regarding hepatotoxicity models treated with each solution, it was evaluated whether there was a difference in the state of adhesion between hepatocytes.
A cell mixture with the following proportions and cell amounts was obtained in the same procedures as Steps 1-1 to 1-3 in Test Example 1. • total amount of cells: 300,000 cells • cell proportions in tissue: • PXB cell: 65%·SEC: 25%·LX2: 10% Step 2-2
After the supernatant was removed from the solution containing the viscous component obtained in Step 2-2, a 20 U/mL thrombin solution (solvent: HCM) was added so that the final volume of the solution was a solution amount of “the number of wells to be seeded”×2 μL to obtain a cell suspension.
2 μL of a 10 mg/mL fibrinogen solution was seeded on a 48-well microplate to form droplets and each cell suspension obtained in Step 2-3 was then added into the droplets, and then left in an incubator for 1 hour to form a fibrin gel.
0.5 mL of HCM (containing Endothelial Cell Growth Supplement) was added to each well in which the fibrin gel was formed.
After HCM was added, culture was continued for 3 days in each well in which the fibrin gel was formed.
After 3 days of culture, the 48-well microplate was removed from the incubator, the medium was removed, washing with PBS was performed, and 300 μL of a 4% paraformaldehyde·phosphate buffer solution (hereinafter referred to as PFA) was then added to each well to fix a hepatotoxicity model (3D model). Then, the PFA was washed thoroughly and removed.
100 μL of a 0.2 (v/v) % TRITON/1 (w/v) % BSA PBS solution (hereinafter referred to as a BSA solution) was added to each well, and left at room temperature for 2 hours.
Anti-MRP2 antibodies were diluted 100-fold with a BSA solution to obtain a primary antibody solution. 100 μL of the primary antibody solution was added to each well and left at 4° C. for 24 hours. Then, the primary antibody solution was washed thoroughly and removed.
Secondary antibodies were diluted 200-fold with a BSA solution to obtain a secondary antibody solution. 100 μL of the secondary antibody solution was added to each well, shielded from light and left at room temperature for 1 hour. Then, the secondary antibody solution was washed thoroughly and removed, and 100 μL of PBS was added to each well.
Images were captured under a confocal microscope. […]
The intensities of the captured images were summed to obtain a fluorescence observation image of each hepatotoxicity model (3D model). […]

[3] = Gelation of neutral collagen solution at room temperature; type: physicochemical; settings: pH 7.4, room temperature
Description: as §1
Since collagen quickly gelled in a neutral solution at room temperature, equal amounts of a 0.4 mg/mL collagen in 5 mM acetate buffer solution and a 200 mM Tris-HCl buffer solution prepared in advance were mixed in each of the above solutions and used. […]

[4] = tested on: bile canaliculi; assay: Bile acid assay (CLF) confirming formation of bile canaliculi in hepatotoxicity model; type: cell-based, Human; settings: collagen 0.3 mg/mL, 6 days of culture
Description: A hepatotoxicity model was produced according to the same method as in the method described in Test Examples 1 and 2. However, the collagen concentration was 0.3 mg/mL, and the heparin concentration was 0.05 mg/mL, 0.15 mg/mL, 0.5 mg/mL, or 5.0 mg/mL (all final concentrations).
After 6 days of culture, the medium was replaced with 300 μL of a medium containing 5 μM CLF (FITC-labeled bile acid CORNING #451041) on which the following operation was performed (this assay was performed while cells were alive). After being left in the incubator for 20 min, the tissue was washed with PBS 5 times. The medium was replaced, and observation was performed under a fluorescence microscope.
FIG. 6, FIG. 7, FIG. 8, and FIG. 9 show the results of fluorescence observation after a medium containing CLF was incubated for the hepatotoxicity models produced with different heparin concentrations. […] In each drawing, the scale bar indicates 500 μm. In normal live tissue in which bile canaliculi were favorably formed, it was thought that, since hepatocytes excreted bile acids taken up from the outside of the live tissue into the bile canaliculi, the intensity of fluorescence derived from FITC retained in the cells was low after the CLF treatment.

Row | Substance | aggregation of cells [1] | expression of MRP2 (fluorescence) ([2]; versus control, FIG. 3) | aggregation of cells in hepatotoxicity model ([2]; 0.2 mg/mL collagen, FIG. 3) | gelation of solution at room temperature [3] | excretion of CLF taken into hepatocytes into the bile canaliculi ([4]; heparin 0.15, 0.5 or 5.0 mg/mL, 5 μM CLF 20 min, FIG. 7-9, (hydrochloride)) | intensity of fluorescence derived from FITC retained in the cells with increasing heparin concentration ([4]; heparin concentration increased, 5 μM CLF) | expression intensity percentage of MRP2 (expression area percentage per area, image analysis) ([2]; versus control, FIG. 5)
1 | collagen | aggregation of cells was significantly promoted | expression of MRP2 tended to decrease significantly | cells tended to aggregate excessively | quickly gelled at room temperature | – | – | –
2 | heparin (hydrochloride) | – | fluorescence was enhanced as a whole compared to control conditions | – | did not gel at room temperature for a long time | CLF taken into hepatocytes was more efficiently excreted into the bile canaliculi; also recorded: CLF taken into hepatocytes was easily excreted into the bile canaliculi | the intensity of fluorescence derived from FITC retained in the cells decreased | higher expression intensity percentage of MRP2 than the control
